{"source": "patent US20060040312A1", "about": "(priority 1999, published 2006)", "key": {"[1]": {"test_system": "primary cultures of ventricular myocytes"}, "[2]": {"test_system": "primary cultures of cortex", "type": "cell-based, rat"}, "[3]": {"molecular_target": "T1, Kv1.3 (Homo sapiens, UniProt P22001)", "T1 construct": "host or cells: oocytes", "conditions": "cited from earlier work"}, "[4]": {"test_system": "cortical cells"}, "[5]": {"test_system": "primary cultures of cortical neurons", "type": "cell-based, rat"}, "[6]": {"test_system": "single tracheal, neuronal or myocyte cells", "type": "cell-based, rat"}, "[7]": {"test_system": "cortex", "type": "cell-based, rat"}, "[8]": {"molecular_target": "Shaker H4 potassium channel (Drosophila melanogaster, UniProt P08510)", "sequence (P08510 whole entry)": "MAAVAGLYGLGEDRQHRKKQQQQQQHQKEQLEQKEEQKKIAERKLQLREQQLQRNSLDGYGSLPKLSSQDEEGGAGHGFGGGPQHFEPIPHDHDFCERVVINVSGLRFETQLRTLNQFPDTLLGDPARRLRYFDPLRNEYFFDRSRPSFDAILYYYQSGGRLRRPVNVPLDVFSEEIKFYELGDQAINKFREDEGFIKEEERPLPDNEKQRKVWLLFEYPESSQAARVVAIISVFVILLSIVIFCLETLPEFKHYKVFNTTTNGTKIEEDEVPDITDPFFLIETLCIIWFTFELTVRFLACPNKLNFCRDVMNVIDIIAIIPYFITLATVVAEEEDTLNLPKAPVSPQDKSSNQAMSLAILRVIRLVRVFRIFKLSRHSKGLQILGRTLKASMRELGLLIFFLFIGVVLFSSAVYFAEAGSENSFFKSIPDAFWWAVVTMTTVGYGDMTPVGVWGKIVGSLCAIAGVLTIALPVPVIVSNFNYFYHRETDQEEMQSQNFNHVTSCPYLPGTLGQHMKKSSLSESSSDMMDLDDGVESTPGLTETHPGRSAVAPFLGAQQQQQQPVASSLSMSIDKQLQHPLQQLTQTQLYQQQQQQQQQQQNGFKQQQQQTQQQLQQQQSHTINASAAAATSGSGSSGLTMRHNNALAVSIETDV", "conditions": "cited from earlier work"}, "[9]": {"molecular_target": "F425G Shaker mutation (Drosophila melanogaster, UniProt P08510, F425G)", "sequence (P08510 whole entry F425G)": "as the sequence (P08510 whole entry) above, with F425G counted along it", "conditions": "cited from earlier work"}, "[10]": {"test_system": "primary cultures of cortex", "type": "cell-based, rat", "remark": "listed apart in the source"}, "[11]": {"test_system": "primary cultures of cortex", "type": "cell-based, rat", "remark": "listed apart in the source"}, "[12]": {"test_system": "primary cortical cultures"}, "[13]": {"conditions": "rat, in vivo, iv"}, "[14]": {"test_system": "trachea", "type": "cell-based, rat"}, "[15]": {"test_system": "primary cultures of ventricular myocytes", "type": "cell-based, rat"}, "[16]": {"test_system": "histamine-contracted, isolated Guinea pig tracheal segments"}, "[17]": {"test_system": "cardiac myocytes", "type": "cell-based, rat"}, "[18]": {"test_system": "cardiac ventricular myocytes", "type": "cell-based, rat"}, "[19]": {"test_system": "primary cultures of cortex"}, "[20]": {"molecular_target": "T2, Kv1.1 (Homo sapiens, UniProt Q09470)", "T2 construct": "host or cells: oocytes", "T2 sequence (Q09470 whole entry)": "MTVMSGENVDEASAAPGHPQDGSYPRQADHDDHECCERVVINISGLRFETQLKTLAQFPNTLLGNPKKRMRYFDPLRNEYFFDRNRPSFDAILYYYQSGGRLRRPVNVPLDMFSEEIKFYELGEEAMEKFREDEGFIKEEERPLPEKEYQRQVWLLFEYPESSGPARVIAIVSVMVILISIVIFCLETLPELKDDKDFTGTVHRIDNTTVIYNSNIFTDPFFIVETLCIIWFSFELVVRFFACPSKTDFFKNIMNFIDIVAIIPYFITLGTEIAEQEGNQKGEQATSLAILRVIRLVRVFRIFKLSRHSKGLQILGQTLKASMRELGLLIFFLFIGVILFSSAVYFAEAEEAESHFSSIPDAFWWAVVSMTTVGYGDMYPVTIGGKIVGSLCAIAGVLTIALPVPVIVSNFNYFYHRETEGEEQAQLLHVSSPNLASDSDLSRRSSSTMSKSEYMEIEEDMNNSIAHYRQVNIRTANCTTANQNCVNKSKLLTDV", "conditions": "cited from earlier work"}, "[21]": {"molecular_target": "Kv1.4 (Homo sapiens, UniProt P22459)", "sequence (P22459 whole entry)": "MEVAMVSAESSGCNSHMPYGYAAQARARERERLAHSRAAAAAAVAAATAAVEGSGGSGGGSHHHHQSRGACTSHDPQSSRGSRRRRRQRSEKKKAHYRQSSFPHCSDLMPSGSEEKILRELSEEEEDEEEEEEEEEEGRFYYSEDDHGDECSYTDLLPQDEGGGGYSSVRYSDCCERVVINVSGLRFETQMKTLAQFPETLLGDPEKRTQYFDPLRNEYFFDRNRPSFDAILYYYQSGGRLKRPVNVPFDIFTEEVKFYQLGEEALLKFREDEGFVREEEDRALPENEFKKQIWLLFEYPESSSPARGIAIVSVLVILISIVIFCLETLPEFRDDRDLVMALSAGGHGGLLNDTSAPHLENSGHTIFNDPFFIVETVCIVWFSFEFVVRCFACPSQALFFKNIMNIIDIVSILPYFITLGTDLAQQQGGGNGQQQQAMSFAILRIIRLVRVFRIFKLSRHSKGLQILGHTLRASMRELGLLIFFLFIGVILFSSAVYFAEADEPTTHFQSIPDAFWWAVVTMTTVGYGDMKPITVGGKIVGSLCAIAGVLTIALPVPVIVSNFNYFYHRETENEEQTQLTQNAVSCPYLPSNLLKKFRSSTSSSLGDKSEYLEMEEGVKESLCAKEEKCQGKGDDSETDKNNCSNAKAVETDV", "conditions": "cited from earlier work"}}, "note": "“And” between values parts separate entries of the source, which are not always exact repeats. Equal values may be shown once. “Also recorded” adds a separate entry of the source. Positions of bridges follow the written chain, without caps; N, C: chain ends. Non-standard residues stand in square brackets, D forms with d. Residues, ends and D or L forms follow the SMILES beside them. Hyp = O=C(O)[C@@H]1C[C@@H](O)CN1"}
{"smiles": "CC[C@H](C)[C@@H]1NC(=O)[C@H](CCCNC(=N)N)NC(=O)[C@@H](N)CSSC[C@@H]2NC(=O)[C@@H]3CSSC[C@@H](C(=O)N[C@H](C(=O)O)C(C)C)NC(=O)[C@H](CCCCN)NC(=O)[C@H](CC(N)=O)NC(=O)[C@H](Cc4ccccc4)NC(=O)[C@H](CCCNC(=N)N)NC(=O)[C@H](CC(N)=O)NC(=O)[C@H](CSSC[C@H](NC(=O)[C@H](CCCCN)NC(=O)[C@H](CCC(N)=O)NC(=O)[C@H](CC(N)=O)NC(=O)[C@@H]4C[C@@H](O)CN4C1=O)C(=O)N[C@@H](Cc1ccccc1)C(=O)N[C@@H](CCC(N)=O)C(=O)N[C@@H](Cc1c[nH]cn1)C(=O)N[C@@H](CC(C)C)C(=O)N[C@@H](CC(=O)O)C(=O)N[C@@H](CC(=O)O)C(=O)N3)NC(=O)[C@H](CCCCN)NC(=O)[C@H](CCCNC(=N)N)NC(=O)[C@H](CO)NC2=O", "note": "[κ-PVIIA, kappa-conotoxin PVIIA] (H-CRI[Hyp]NQKCFQHLDDCCSRKCNRFNKCV-OH; disulfide 1-16, 8-20, 15-26)", "values": [{"measurement": "EC50", "setting": "[1]", "value": 0.0009, "unit": "pM"}, {"measurement": "initial glutamate-induced depolarization (current-clamp)", "setting": "[2]", "value": "prevents the initial glutamate-induced depolarization"}, {"measurement": "effects on Kv1.3", "setting": "[3]", "value": "no effects"}, {"measurement": "degree of glutamate-induced excitotoxicity", "setting": "[4]", "value": "effectively reduces the degree of glutamate-induced excitotoxicity in a dose-dependant manner"}, {"measurement": "protection against delayed cytotoxic effects of glutamate", "setting": "[4]", "value": "very effective protection"}, {"measurement": "change in intracellular calcium (Fluo-3 fluorescence)", "setting": "[5]", "value": "−2.15±0.95% and −8.8±3.9%"}, {"measurement": "effect on intracellular calcium (Fluo-3)", "setting": "[5]", "value": "significant reduction"}, {"measurement": "protection against hypoxia-induced changes in membrane potential (current-clamp)", "setting": "[6]", "value": "A similar result"}, {"measurement": "protection against hypoxia (intracellular calcium, fluo-3)", "setting": "[7]", "value": "able to provide protection against hypoxia"}, {"measurement": "block / inhibition of the Shaker channel", "setting": "[8]", "value": "block"}, {"measurement": "effect of F425G Shaker mutation on toxin affinity / sensitivity", "setting": "[9]", "value": "abolishes"}, {"measurement": "current corrected for cell capacitance", "setting": "[10]", "value": "2.4±0.7", "unit": "pA/pf"}, {"measurement": "current evoked", "setting": "[10]", "value": "26.2±6.2", "unit": "pA"}, {"measurement": "reversal potential of the evoked current", "setting": "[10]", "value": "~−20", "unit": "mV"}, {"measurement": "change in intracellular K+ concentration (PBFI)", "setting": "[11]", "value": "reduction"}, {"measurement": "protease activity (cytotoxicity)", "setting": "[12]", "value": "no detectable protease activity"}, {"measurement": "effect on blood pressure", "setting": "[13]", "value": "no effect"}, {"measurement": "effect on heart rate", "setting": "[13]", "value": "no effect"}, {"measurement": "protection against hypoxia (intracellular calcium, fluo-3)", "setting": "[14]", "value": "able to provide protection against hypoxia"}, {"measurement": "protection against hypoxia (intracellular calcium, fluo-3)", "setting": "[15]", "value": "able to provide protection against hypoxia"}, {"measurement": "relaxation of histamine-contracted tracheal segments", "setting": "[16]", "value": "able to relax"}, {"measurement": "current corrected for cell capacitance", "setting": "[17]", "value": "4.6±0.4", "unit": "pA/pf"}, {"measurement": "current evoked", "setting": "[17]", "value": "87.7±5.9", "unit": "pA"}, {"measurement": "induction of currents", "setting": "[17]", "value": "induces glibenclamide-sensitive currents"}, {"measurement": "protection against hypoxia-induced depolarization", "setting": "[18]", "value": "prevented any hypoxia-induced changes in membrane potential; also recorded: strong protective effect; also recorded: confers protection"}, {"measurement": "EC50", "setting": "[19]", "value": 0.0008, "unit": "pM"}, {"measurement": "activity on Kv1.1", "setting": "[20]", "value": "no detectable activity; also recorded: no effects"}, {"measurement": "activity on Kv1.4", "setting": "[21]", "value": "no detectable activity"}]}
